“And” between values parts separate entries of the source, which are not always exact repeats. Equal entries are not always repeated.
Test system: 855422-203-R-J1-PDC complex spheroids, viability
Assay: Anticancer human tumor 855422-203-R-J1-PDC patient-derived bladder carcinoma cell line growth inhibition [CLK]
Conditions: for viability, T/C: stronger effect = lower value
Summary of the method: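 Multi-cell-type spheroids combined patient-derived tumor cells with HUVEC endothelial cells and human mesenchymal stem cells. Paired agents were dosed in half-log steps down from about clinical Cmax, or from 10 microM where Cmax was unknown.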

[1] = curve of first compound, second compound 0.0316 µM
[2] = curve of first compound, second compound 0.1 µM
[3] = curve of first compound, second compound 0.316 µM
[4] = curve of first compound, second compound 1 µM
[5] = curve of first compound, second compound 3.16 µM
[6] = curve of first compound, second compound 10 µM
[7] = second compound 0.0316 µM, first compound 0.0316 µM
[8] = second compound 0.0316 µM, first compound 0.1 µM
[9] = second compound 0.1 µM, first compound 0.0316 µM
[10] = second compound 0.1 µM, first compound 0.1 µM
[11] = second compound 0.316 µM, first compound 0.0316 µM
[12] = second compound 0.316 µM, first compound 0.1 µM
[13] = second compound 1 µM, first compound 0.0316 µM
[14] = second compound 1 µM, first compound 0.1 µM
[15] = second compound 3.16 µM, first compound 0.0316 µM
[16] = second compound 3.16 µM, first compound 0.1 µM
[17] = second compound 10 µM, first compound 0.0316 µM
[18] = second compound 10 µM, first compound 0.1 µM
[19] = second compound 0.0316 µM, first compound 0.316 µM
[20] = second compound 0.0316 µM, first compound 1 µM
[21] = second compound 0.0316 µM, first compound 3.16 µM
[22] = second compound 0.0316 µM, first compound 10 µM
[23] = second compound 0.1 µM, first compound 0.316 µM
[24] = second compound 0.1 µM, first compound 1 µM
[25] = second compound 0.1 µM, first compound 3.16 µM
[26] = second compound 0.1 µM, first compound 10 µM
[27] = second compound 0.316 µM, first compound 0.316 µM
[28] = second compound 0.316 µM, first compound 1 µM
[29] = second compound 0.316 µM, first compound 3.16 µM
[30] = second compound 0.316 µM, first compound 10 µM
[31] = second compound 1 µM, first compound 0.316 µM
[32] = second compound 1 µM, first compound 1 µM
[33] = second compound 1 µM, first compound 3.16 µM
[34] = second compound 1 µM, first compound 10 µM
[35] = second compound 3.16 µM, first compound 0.316 µM
[36] = second compound 3.16 µM, first compound 1 µM
[37] = second compound 3.16 µM, first compound 3.16 µM
[38] = second compound 3.16 µM, first compound 10 µM
[39] = second compound 10 µM, first compound 0.316 µM
[40] = second compound 10 µM, first compound 1 µM
[41] = second compound 10 µM, first compound 3.16 µM
[42] = second compound 10 µM, first compound 10 µM
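Further: spheroids exposed to drugs for seven days before readout.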
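Wherever viability, T/C is given: 100% = DMSO vehicle control wells.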

Cn1ncnc1[C@H]1c2n[nH]c(=O)c3cc(F)cc(c23)N[C@@H]1c1ccc(F)cc1 + CN1CCN(c2cc(C(=O)Nc3cc4cc(-c5cnn(C)c5)ccc4cn3)ccn2)CC1
IC50 [1]: > 0.1 µM
IC50 [2]: > 0.1 µM
IC50 [3]: < 0.000316 µM
IC50 [4]: < 0.000316 µM
IC50 [5]: < 0.000316 µM
IC50 [6]: < 0.000316 µM
viability, T/C (second compound 0.0316 µM, first compound 0.000316 µM): 97.4%
viability, T/C (second compound 0.0316 µM, first compound 0.001 µM): 101%
viability, T/C (second compound 0.0316 µM, first compound 0.00316 µM): 110%
viability, T/C (second compound 0.0316 µM, first compound 0.01 µM): 104%
viability, T/C [7]: 113%
viability, T/C [8]: 104%
viability, T/C (second compound 0.1 µM, first compound 0.000316 µM): 79.5%
viability, T/C (second compound 0.1 µM, first compound 0.001 µM): 92.6%
viability, T/C (second compound 0.1 µM, first compound 0.00316 µM): 103%
viability, T/C (second compound 0.1 µM, first compound 0.01 µM): 87.4%
viability, T/C [9]: 95.9%
viability, T/C [10]: 83.8%
viability, T/C (second compound 0.316 µM, first compound 0.000316 µM): 5.88%
viability, T/C (second compound 0.316 µM, first compound 0.001 µM): 9.73%
viability, T/C (second compound 0.316 µM, first compound 0.00316 µM): 10.4%
viability, T/C (second compound 0.316 µM, first compound 0.01 µM): 9.1%
viability, T/C [11]: 9.56%
viability, T/C [12]: 8.15%
viability, T/C (second compound 1 µM, first compound 0.000316 µM): 0.17%
viability, T/C (second compound 1 µM, first compound 0.001 µM): 0.23%
viability, T/C (second compound 1 µM, first compound 0.00316 µM): 0.15%
viability, T/C (second compound 1 µM, first compound 0.01 µM): 0.12%
viability, T/C [13]: 4.07%
viability, T/C [14]: 0.15%
viability, T/C (second compound 3.16 µM, first compound 0.000316 µM): 0.48%
viability, T/C (second compound 3.16 µM, first compound 0.001 µM): 0.5%
viability, T/C (second compound 3.16 µM, first compound 0.00316 µM): 0.41%
viability, T/C (second compound 3.16 µM, first compound 0.01 µM): 0.33%
viability, T/C [15]: 0.23%
viability, T/C [16]: 0.84%
viability, T/C (second compound 10 µM, first compound 0.000316 µM): 0.23%
viability, T/C (second compound 10 µM, first compound 0.001 µM): 1.99%
viability, T/C (second compound 10 µM, first compound 0.00316 µM): 0.17%
viability, T/C (second compound 10 µM, first compound 0.01 µM): 0.22%
viability, T/C [17]: 0.17%
viability, T/C [18]: 0.18%

O=C(c1cc(Cc2n[nH]c(=O)c3ccccc23)ccc1F)N1CCN(C(=O)C2CC2)CC1 + CN1CCN(c2cc(C(=O)Nc3cc4cc(-c5cnn(C)c5)ccc4cn3)ccn2)CC1
IC50 [1]: > 10 µM
IC50 [2]: > 10 µM
IC50 [3]: < 0.0316 µM
IC50 [4]: < 0.0316 µM
IC50 [5]: < 0.0316 µM
IC50 [6]: < 0.0316 µM
viability, T/C [7]: 97.5%
viability, T/C [8]: 93.4%
viability, T/C [19]: 94.5%
viability, T/C [20]: 119%
viability, T/C [21]: 106%
viability, T/C [22]: 91.2%
viability, T/C [9]: 79.5%
viability, T/C [10]: 82%
viability, T/C [23]: 86.8%
viability, T/C [24]: 89.6%
viability, T/C [25]: 83.5%
viability, T/C [26]: 80.8%
viability, T/C [11]: 7.7%
viability, T/C [12]: 9.07%
viability, T/C [27]: 12.2%
viability, T/C [28]: 13.9%
viability, T/C [29]: 9.53%
viability, T/C [30]: 7.3%
viability, T/C [13]: 0.24%
viability, T/C [14]: 0.27%
viability, T/C [31]: 0.24%
viability, T/C [32]: 0.2%
viability, T/C [33]: 2.03%
viability, T/C [34]: 0.16%
viability, T/C [15]: 0.76%
viability, T/C [16]: 0.67%
viability, T/C [35]: 1.9%
viability, T/C [36]: 0.61%
viability, T/C [37]: 1.44%
viability, T/C [38]: 0.45%
viability, T/C [17]: 0.43%
viability, T/C [18]: 0.39%
viability, T/C [39]: 0.38%
viability, T/C [40]: 0.33%
viability, T/C [41]: 0.7%
viability, T/C [42]: 0.32%

CC(Nc1ccc2c(c1)OCCn1cc(N3C(=O)OCC3C(F)F)nc1-2)C(N)=O (centres undefined) + CNC(=O)c1ccc(Nc2nc(OC3CCCC3)c3c(-c4ccc5nc(C)oc5c4)c[nH]c3n2)c(OC)c1
IC50 [1]: 0.161 µM
IC50 [2]: 0.181 µM
IC50 [3]: < 0.0316 µM
IC50 [4]: < 0.0316 µM
IC50 [5]: < 0.0316 µM
IC50 [6]: < 0.0316 µM
viability, T/C [7]: 80.5%
viability, T/C [8]: 59.6%
viability, T/C [19]: 36.1%
viability, T/C [20]: 26.3%
viability, T/C [21]: 19.7%
viability, T/C [22]: 11.1%
viability, T/C [9]: 61.9%
viability, T/C [10]: 58.6%
viability, T/C [23]: 42.6%
viability, T/C [24]: 27.5%
viability, T/C [25]: 19.7%
viability, T/C [26]: 12%
viability, T/C [11]: 15.8%
viability, T/C [12]: 15.3%
viability, T/C [27]: 13.8%
viability, T/C [28]: 13.4%
viability, T/C [29]: 9.9%
viability, T/C [30]: 6.79%
viability, T/C [13]: 16.9%
viability, T/C [14]: 16.6%
viability, T/C [31]: 11.4%
viability, T/C [32]: 9.1%
viability, T/C [33]: 8.21%
viability, T/C [34]: 4.44%
viability, T/C [15]: 21.2%
viability, T/C [16]: 15.8%
viability, T/C [35]: 9.09%
viability, T/C [36]: 9.68%
viability, T/C [37]: 8.52%
viability, T/C [38]: 5.74%
viability, T/C [17]: 15.8%
viability, T/C [18]: 12.1%
viability, T/C [39]: 10.3%
viability, T/C [40]: 10.3%
viability, T/C [41]: 7.09%
viability, T/C [42]: 3.99%

Nc1ccn(C2OC(CO)C(O)C2(F)F)c(=O)n1 (centres undefined)
viability, T/C (compound 0.0316 µM): 26.9% and 25.7%
viability, T/C (compound 0.1 µM): 16.5% and 10.8%
viability, T/C (compound 0.316 µM): 17.8% and 15.2%
viability, T/C (compound 1 µM): 15.7% and 11.5%
viability, T/C (compound 3.16 µM): 11.1% and 9.45%
viability, T/C (compound 10 µM): 7.67% and 6.64%
IC50 (curve of compound): < 0.0316 µM

COc1cccc2c1C(=O)c1c(O)c3c(c(O)c1C2=O)CC(O)(C(=O)CO)CC3OC1CC(N)C(O)C(C)O1 (centres undefined)
viability, T/C (compound 0.0316 µM): 15.1% and 13.7%
viability, T/C (compound 0.1 µM): 2.91% and 1.62%
viability, T/C (compound 0.316 µM): 1.09% and 1.08%
viability, T/C (compound 1 µM): 1.18% and 0.23%
viability, T/C (compound 3.16 µM): 0.29% and 0.47%
viability, T/C (compound 10 µM): 0.19% and 0.46%
IC50 (curve of compound): < 0.0316 µM

COc1ccc([C@@H](O)c2cc(-c3ncnc4cc(N5CCOCC5)ccc34)c(F)cc2Cl)nn1 + CN1CCN(c2cc(C(=O)Nc3cc4cc(-c5cnn(C)c5)ccc4cn3)ccn2)CC1
IC50 [1]: 5.35 µM
IC50 [2]: 5.05 µM
IC50 [3]: < 0.0316 µM
IC50 [4]: < 0.0316 µM
IC50 [5]: < 0.0316 µM
IC50 [6]: < 0.0316 µM
viability, T/C [7]: 104%
viability, T/C [8]: 118%
viability, T/C [19]: 91.3%
viability, T/C [20]: 94%
viability, T/C [21]: 66%
viability, T/C [22]: 29.9%
viability, T/C [9]: 84.7%
viability, T/C [10]: 96.1%
viability, T/C [23]: 89.2%
viability, T/C [24]: 86%
viability, T/C [25]: 64.6%
viability, T/C [26]: 28.7%
viability, T/C [11]: 6.51%
viability, T/C [12]: 8.74%
viability, T/C [27]: 5.23%
viability, T/C [28]: 4.62%
viability, T/C [29]: 5.93%
viability, T/C [30]: 5.44%
viability, T/C [13]: 0.14%
viability, T/C [14]: 0.19%
viability, T/C [31]: 0.74%
viability, T/C [32]: 0.11%
viability, T/C [33]: 2.55%
viability, T/C [34]: 0.09%
viability, T/C [15]: 1.7%
viability, T/C [16]: 0.33%
viability, T/C [35]: 1.52%
viability, T/C [36]: 0.2%
viability, T/C [37]: 0.33%
viability, T/C [38]: 0.13%
viability, T/C [17]: 0.6%
viability, T/C [18]: 0.27%
viability, T/C [39]: 0.24%
viability, T/C [40]: 0.24%
viability, T/C [41]: 0.26%
viability, T/C [42]: 0.19%

Cn1ncnc1[C@H]1c2n[nH]c(=O)c3cc(F)cc(c23)N[C@@H]1c1ccc(F)cc1
viability, T/C (compound 0.000316 µM): 105% and 134%
viability, T/C (compound 0.001 µM): 97.5% and 96.9%
viability, T/C (compound 0.00316 µM): 110% and 130%
viability, T/C (compound 0.01 µM): 113% and 102%
viability, T/C (compound 0.0316 µM): 121% and 158%
viability, T/C (compound 0.1 µM): 110% and 141%
IC50 (curve of compound): > 0.1 µM
